The values that follow are results of earlier work, collected in patent US20230070788A1, “METHOD FOR DYEING KERATIN MATERIAL, COMPRISING THE USE OF AN ORGANIC C1-C6 ALKOXY SILANE AND A COPOLYMER OF (METH) ACRYLIC ACID AND MALEIC ACID (ANHYDRIDE)” (Henkel AG & Co. KGaA, priority 2019, published 2023).

The conditions of the data set: for solubility in water: 25° C.

Regarding `O=C([O-])c1c(Cl)c(Cl)c(Cl)c(Cl)c1-c1c2c(Br)cc(=O)c(Br)c-2oc2c(Br)c(O)cc(Br)c12.O=C([O-])c1c(Cl)c(Cl)c(Cl)c(Cl)c1-c1c2c(Br)cc(=O)c(Br)c-2oc2c(Br)c(O)cc(Br)c12.[Na+].[Na+]` [Acid Red 92, disodium salt of 3,4,5,6-tetrachloro-2-(1,4,5,8-tetrabromo-6-hydroxy-3-oxoxanthen-9-yl)benzoic acid], the solubility in water entry is listed as “greater than 10 g/L”. With `Nc1cc(S(=O)(=O)[O-])cc2cc(S(=O)(=O)[O-])c(N=Nc3ccccc3)c(O)c12.[Na+].[Na+]` [Acid Red 33, disodium salt of 5-amino-4-hydroxy-3-(phenylazo)-naphthalene-2,7-disulphonate], the solubility in water is on record as 2.5 g/L. As for `O=C([O-])C1=NN(c2ccc(S(=O)(=O)[O-])cc2)C(=O)C1N=Nc1ccc(S(=O)(=O)[O-])cc1.[Na+].[Na+].[Na+]` (centres unmarked) [Acid Yellow 23, trisodium salt of 4,5-dihydro-5-oxo-1-(4-sulfophenyl)-4-((4-sulfophenyl)azo)-1H-pyrazole-3-carboxylic acid], for the setting “water at 25° C.”, the “solubility in water (in words)” value is “readily soluble”. For the compound `O=S(=O)([O-])c1ccc(N=Nc2c(O)ccc3ccccc23)cc1.[Na+]` [Acid Orange 7, sodium salt of 4-[(2-hydroxy-1-naphthyl)azo]benzenesulfonate], the solubility in water result is given as “more than 7 g/L”. In the case of “mixture of the sodium salts of mono- and disulfonic acids of 2-(2-quinolyl)-1H-indene-1,3(2H)-dione [Acid Yellow 3]”, the solubility in water was 20 g/L.
